# Assays:
# ICR mice = assay: Acute toxicity, oral, fatality rate at 24 hours; assay type: in vivo; details: 2.0 g/kg, n=5
# Experimental: This experiment was conducted to investigate the acute (within 24 hours) toxicity of the compound of the present disclosure and determine its fatality rate when consumed in an excess amount in a short period of time. ICR mice were assigned to a control group (n=5) and a test group (n=5). Nothing was administered to the control group and the compound of Example (1) was orally administered to the test group at a concentration of 2.0 g/kg (about 50 times the amount used in general animal experiments).
# [1] = test system: human endothelial cells (HUVECs); assay: Cell viability test (CELLTITER-GLO luminescent assay) in HUVECs; assay type: cell-based; details: various concentrations, 48 hours, FIG. 1A
# Experimental: ARPE-19 cells (RID: CVCL 0145) and L-Wnt3a cells (RID: CVCL 0635) were acquired from American Type Culture Collection (ATCC) and cultured in a DMEM medium supplemented with 10% fetal bovine serum (FBS), 120 μg/mL penicillin and 200 μg/mL streptomycin. Human umbilical vein endothelial cells (HUVECs, RID: CVCL 2959) were purchased from CEFO (Cell Engineering for Origin) and cultured using an optimized medium (CEFOgro-HUVEC). Wnt3a-CM (Wnt3a-conditioned medium) was prepared using L-Wnt3a cells that secrete the Wnt-3a protein into the medium. First, the cells were cultured for 4 days and the medium was recovered and replaced with a fresh medium. After culturing for 3 days, the medium was recovered. […]
# HUVECs were inoculated into a 96-well plate with a transparent black bottom at 5,000 cells per well, incubated overnight, and then treated with a test substances (compound of Example (1) (CGK012) or decursin of Comparative Example (1)) at various concentrations together with a medium (total volume per well: 100 μL). After 48 hours, cell viability was measured using a CELLTITER-GLO® luminescent cell viability assay kit (Promega, G7572) according to the manufacturer's instructions. […] After mixing in an orbital shaker for 2 minutes for cell lysis, stabilization was induced at room temperature for 10 minutes, and then luminescence was measured. […]
# [2] = test system: choroidal neovascularization (CNV)-induced rabbit model; assay: Laser-induced choroidal neovascularization (CNV) rabbit model, fluorescein angiography, retinal fluorescence intensity; assay type: in vivo, Chinchilla rabbit; details: for Fluorescence intensity (% of control group): rabbit CNV, instillation 300 μg/eye 1/day, day 7 (G6, G7)
# Text: After obtaining 50 male Chinchilla rabbits weighing about 2.5-3.0 kg from DREAMBIO, their health status was checked during a 7-day acclimatization period, and healthy animals were used in the test.
# After the acclimatization period, 42 healthy rabbits were selected and a mydriatic agent (MIDRIACIL™ 1% eye drop) was instilled into the right eye. After anesthetizing the animals, laser (ELITE, LUMENIS, USA) was irradiated under the condition of 532 nm, power 150 mW and duration 0.1 sec, and 6 spots were made in about 6 o'clock direction around the optic nerve.
# After dividing the test animals into a total of 7 groups, G1 to G7, administration of the test substance was started on the day of the CNV induction using laser with the concentrations described in Table 2. In Table 2, EYLEA™ (Aflibercept) was used as a positive control substance. For intravitreal injection, 40 μL of the positive control substance (EYLEA™) was injected intravitreally into the right eye of the animal in the anesthetized state using a syringe equipped with a 31-gauge needle on the day of the CNV induction. For instillation, after the animal was taken out of the cage and corrected naturally by an assistant, 200 μL of the test substance was instilled into the center of the cornea of the right eye by using a pipette. In the case of “a)”, the instillation was divided into 4 times and each administration was spaced by 5 minutes.
# Before the administration of the test substance (0) and on 7, 14, 28, 42 and 56 days after the administration, a mydriatic agent (MIDRIACIL™ 1% eye drop) was instilled into the right of the animal. Then, after anesthetizing the animal and injecting about 1 mL of a 2% fluorescein sodium salt solution via the ear vein, images were taken within about 2 minutes using a fundus camera (TRC-50IX, Topcon, Japan).
# Retinal CNV and drug efficacy were confirmed using the retinal fluorescein fundus images. The fluorescein intensity of the irradiation area was analyzed using the ImageJ software (NIH, Bethesda, MD).
# For the results of this test, the significance between the test groups was tested using parametric one-way ANOVA assuming the normality of the data. When significance was recognized, a post hoc test was performed using Dunnett's multiple comparison test. Statistical analysis was performed using PRISM 7.04 (GraphPad Software Inc., San Diego, CA, USA), and p<0.05 was considered statically significant.
# The test substance of the example or the comparative example was dropped onto the eye of a rabbit wherein choroidal neovascularization (CNV) was induced by laser irradiation, for 7 days, 300 μg per each administration. On day 7 after the start of the test substance administration, the eye was imaged with a fundus camera to compare the effect of the test substance on intraocular vascular leakage and the fluorescence intensity of the retina was analyzed. […] Table 3 compares the relative fluorescence intensity (% of control group) of the irradiation area determined by analyzing the retinal fluorescein angiographic images of the control group (G1), the test group (G6) and the comparison group (G7).
# For a rabbit wherein choroidal neovascularization (CNV) was induced by laser irradiation, EYLEA™ was intravitreally injected as a positive control, the eye drop of the example was administered by dropping onto the eye or EYLEA™ and the eye drop of the example were co-administered. […]
# [3] = test system: vascular endothelial growth factor (VEGF) in human retinal pigment epithelial cells (ARPE-19 cells); assay: Western blotting of VEGF level in ARPE-19 cells; assay type: cell-based; details: FIG. 1B
# Experimental: ARPE-19 cells (RID: CVCL 0145) and L-Wnt3a cells (RID: CVCL 0635) were acquired from American Type Culture Collection (ATCC) and cultured in a DMEM medium supplemented with 10% fetal bovine serum (FBS), 120 μg/mL penicillin and 200 μg/mL streptomycin. Human umbilical vein endothelial cells (HUVECs, RID: CVCL 2959) were purchased from CEFO (Cell Engineering for Origin) and cultured using an optimized medium (CEFOgro-HUVEC). Wnt3a-CM (Wnt3a-conditioned medium) was prepared using L-Wnt3a cells that secrete the Wnt-3a protein into the medium. First, the cells were cultured for 4 days and the medium was recovered and replaced with a fresh medium. After culturing for 3 days, the medium was recovered. The two media were combined and used after passing through a 0.22-μm filter. All the cells were cultured in a cell incubator under the condition of 37° C. and 5% CO2.
# Whole cell proteins were obtained using a RIPA buffer. After treating the cells with an appropriate amount of a RIPA buffer supplemented with 1× protease inhibitor, the cells were reacted on ice while vortexing once every 10 minutes. After centrifuging at 13,000 rpm and at 4° C. for 10 minutes and quantifying the obtained supernatant by BRADFORD™ assay, […] of proteins were separated according to molecular weight through electrophoresis. […]
# C57BL/6J mice = assay: Organ and tissue toxicity (blood GPT, BUN; liver and kidney histology); assay type: in vivo
# Experimental: In order to investigate the effect on the organs (tissues) of C57BL/6J mice, blood was taken from the animals of a test group to which the compound of Example (1) was administered and a control group to which only a solvent was administered 8 weeks after the administration, and blood levels of GPT (glutamate-pyruvate transferase) and BUN (blood urea nitrogen) were measured using SELECT™ E (Vital Scientific NV, Netherlands). […] In addition, the liver and kidney were taken from each animal and subjected to histological observation under an optical microscope through a conventional tissue section preparation process.
# [4] = G5: CGK012 administered alone, FIG. 6B, 6C
Molecule,fatality rate 24 hours after the administration (ICR mice),cell viability of human endothelial cells (HUVECs) [1],"difference of retinal fluorescence intensity from the positive control EYLEA administration group (G2) [2, 4]","level of retinal fluorescence intensity as compared to the induced control group (G1) [2, 4]","relative fluorescence intensity (% of control group) ([2]; G5: CGK012 instillation 300 μg/eye 2/day, Day 7)","relative fluorescence intensity (% of control group) ([2]; G5: CGK012 instillation 300 μg/eye 2/day, Day 14)","relative fluorescence intensity (% of control group) ([2]; G5: CGK012 instillation 300 μg/eye 2/day, Day 28)","relative fluorescence intensity (% of control group) ([2]; G5: CGK012 instillation 300 μg/eye 2/day, Day 42)","relative fluorescence intensity (% of control group) ([2]; G5: CGK012 instillation 300 μg/eye 2/day, Day 56)","duration of the effect of inhibiting choroidal neovascularization ([2]; G5: single administration of CGK012 (eye drop, without EYLEA)) [weeks]",Fluorescence intensity (% of control group) [2],level of VEGF in ARPE-19 cells [3],"blood level of BUN (blood urea nitrogen) vs control group (C57BL/6J mice; 8 weeks after the administration, kidney toxicity)","blood level of GPT (glutamate-pyruvate transferase) vs control group (C57BL/6J mice; 8 weeks after the administration, liver toxicity)",histological observation of liver and kidney (C57BL/6J mice; optical microscope),"relative fluorescence intensity (% of control group) ([2]; G2: EYLEA intravitreal 1600 μg/eye 1/3 weeks, Day 7)","relative fluorescence intensity (% of control group) ([2]; G2: EYLEA intravitreal 1600 μg/eye 1/3 weeks, Day 14)","relative fluorescence intensity (% of control group) ([2]; G2: EYLEA intravitreal 1600 μg/eye 1/3 weeks, Day 28)","relative fluorescence intensity (% of control group) ([2]; G2: EYLEA intravitreal 1600 μg/eye 1/3 weeks, Day 42)","relative fluorescence intensity (% of control group) ([2]; G2: EYLEA intravitreal 1600 μg/eye 1/3 weeks, Day 56)"
"CC1(C)Oc2cc3oc(=O)ccc3cc2C[C@@H]1OC(=O)NC1CCCC1 [CGK012, (7S)-(+)-cyclopentylcarbarmic acid 8,8-dimethyl-2-oxo-6,7-dihydro-2H,8H-pyrano[3,2-g]chromen-7-yl-ester]",all the animals of the control group and the test group survived,significantly inhibited the survival of the HUVECs at high concentrations,no statistically significant difference,significantly low,80.877 ± 8.905 % of control group,79.116 ± 7.972 % of control group,79.152 ± 6.642 % of control group,79.137 ± 6.355 % of control group,81.041 ± 10.391 % of control group,8,75.52 ± 3.93 % of control group,remarkably decreased VEGF,no significant difference was observed,no significant difference was observed,No unusual abnormality was observed,,,,,
"CC(C)=CC(=O)O[C@H]1Cc2cc3ccc(=O)oc3cc2OC1(C)C [decursin, reference compound]",,did not significantly induce the apoptosis of the HUVECs even at high concentrations,,,,,,,,,95.66 ± 10.80 % of control group,did not show significant effect on the level of VEGF,,,,,,,,
"Aflibercept [EYLEA™, reference compound]",,,,,,,,,,,,,,,,78.474 ± 8.452 % of control group,70.022 ± 7.008 % of control group,69.348 ± 5.013 % of control group,74.154 ± 9.129 % of control group,84.087 ± 9.079 % of control group
